Blank lines part the entries; values can stand above or below the compound they belong to. The source made the active and inactive calls. The rule behind the calls is not given here.
Experiments:
[1] = target: T1, Indoleamine 2,3-dioxygenase 1 (Homo sapiens, UniProt P14902); test: Inhibition of human recombinant indoleamine-2,3-dioxygenase expressed in Escherichia coli BL21 using L-tryptophan as substrate after 30 mins by microplate reader analysis
Target sequence in this assay (P14902 whole entry): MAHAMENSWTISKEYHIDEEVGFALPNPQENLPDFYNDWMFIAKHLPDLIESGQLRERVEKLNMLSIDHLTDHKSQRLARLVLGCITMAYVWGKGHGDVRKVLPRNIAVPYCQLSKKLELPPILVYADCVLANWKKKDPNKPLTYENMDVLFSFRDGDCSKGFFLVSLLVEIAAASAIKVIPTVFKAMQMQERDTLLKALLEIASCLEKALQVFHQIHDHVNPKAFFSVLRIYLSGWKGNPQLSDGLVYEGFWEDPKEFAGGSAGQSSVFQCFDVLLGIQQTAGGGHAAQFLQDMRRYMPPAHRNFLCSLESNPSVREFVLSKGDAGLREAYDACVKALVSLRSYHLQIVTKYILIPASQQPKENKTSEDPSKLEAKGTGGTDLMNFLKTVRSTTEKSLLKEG

T-cell [2] = test: Induction of BALB/c mouse LLC-stimulated T cell proliferation after 4 days by WST-1 method; format: functional, cell-based
[3] = target: T1, Indoleamine 2,3-dioxygenase 1; test: Reversal inhibition of human recombinant indoleamine-2,3-dioxygenase expressed in Escherichia coli BL21 using L-tryptophan as substrate by Dixon plot analysis
Target sequence in this assay (P14902 whole entry, looked up): as the sequence (P14902 whole entry) above

T-cell [4] = test: Ratio of 1-methyl tryptophan to compound for induction of BALB/c mouse LLC-stimulated T cell proliferation; format: functional
[5] = target: T1, Indoleamine 2,3-dioxygenase 1; test: Ratio of IC50 for human recombinant indoleamine-2,3-dioxygenase expressed in Escherichia coli BL21 to IC50 for indoleamine-2,3-dioxygenase in human HEK293 cells
Target sequence in this assay (P14902 whole entry, looked up): as the sequence (P14902 whole entry) above

[6] = target: T1, Indoleamine 2,3-dioxygenase 1; test: Inhibition of indoleamine-2,3-dioxygenase in human HEK293 cells assessed as N-formylkynurenine level after 5 hrs by spectrophotometric analysis; format: cell-based
Target sequence in this assay (P14902 whole entry): as above

[7] = target: T1, Indoleamine 2,3-dioxygenase 1; test: Uncompetitive inhibition of human recombinant indoleamine-2,3-dioxygenase expressed in Escherichia coli BL21 using L-tryptophan as substrate by Dixon plot analysis
Target sequence in this assay (P14902 whole entry): as above

- IC50 ([1]; read-out: IC50): 2570 µM
SMILES: c1ccc2[nH]nnc2c1 [BENZOTRIAZOLE]

- IC50 ([1]; read-out: IC50): 1030 µM
SMILES: Cc1ccc(-c2[nH]nnc2Br)cc1

- IC50 [1]: Not Active
SMILES: Brc1nn[nH]c1-c1ccccc1

- IC50 ([1]; read-out: IC50): 533 µM
SMILES: O=[N+]([O-])c1ccc(-c2nn[nH]c2[N+](=O)[O-])cc1

- IC50 ([1]; read-out: IC50): 1260 µM
SMILES: Brc1ccc(-c2c[nH]nn2)cc1

- IC50 ([1]; read-out: IC50): 6000 µM
SMILES: COc1ccc(-c2c[nH]nn2)cc1

- IC50 [1]: Not Active
SMILES: Brc1ccc(-c2nn[nH]n2)cc1

- IC50 ([1]; read-out: IC50): 1370 µM
SMILES: Ic1nn[nH]c1-c1ccccc1

- IC50 [1]: Not Active
SMILES: On1nnc2ccccc21

- IC50 ([1]; read-out: IC50): 1030 µM
SMILES: COc1ccccc1-c1c[nH]nn1

- IC50 [1]: Not Active
SMILES: COC(=O)c1ccc(-c2cnn[nH]2)cc1

- inhibition [3]: Active
- Ratio IC50 [5]: 3
SMILES: Brc1ccccc1-c1cnn[nH]1
- Activity (T-cell [2]): Dose-dependent effect

The remaining lines, values behind:

SMILES: Clc1ccccc1-c1cnn[nH]1
- Activity (T-cell [2]): Dose-dependent effect
- inhibition [3]: Active
- Ratio (T-cell [4]): 2
- Ratio IC50 [5]: 3

SMILES: Clc1ccccc1-c1c[nH]nn1
- IC50 [6]: 19.3 µM
- Ki [7]: 14.5 µM
- IC50 ([1]; read-out: IC50): 86 µM

SMILES: Clc1ccc(-c2c[nH]nn2)cc1
- IC50 ([1]; read-out: IC50): 817 µM

SMILES: CCOC(=O)c1cn(-c2ccc(Cl)cc2)nn1
- IC50 ([1]; read-out: IC50): 2000 µM

SMILES: c1ccc(-c2cnn[nH]2)cc1
- Activity (T-cell [2]): Dose-dependent effect
- inhibition [3]: Active

SMILES: Brc1ccccc1-c1c[nH]nn1
- IC50 [6]: 31.6 µM
- Ki [7]: 18 µM
- IC50 ([1]; read-out: IC50): 148 µM

SMILES: Cc1ccc(-c2c[nH]nn2)cc1
- IC50 [1]: Not Active

SMILES: c1cncc(-c2c[nH]nn2)c1
- IC50 ([1]; read-out: IC50): 708 µM

SMILES: Fc1ccc(-c2c[nH]nn2)cc1
- IC50 ([1]; read-out: IC50): 580 µM

SMILES: Clc1nn[nH]c1-c1ccccc1
- IC50 [1]: Not Active

— ChEMBL document CHEMBL1909637, “Structure-activity relationship and enzyme kinetic studies on 4-aryl-1H-1,2,3-triazoles as indoleamine 2,3-dioxygenase (IDO) inhibitors” (Eur J Med Chem, 2011)
